Measured values from patent publication US20230310428A1, “EGFR INHIBITOR AND PREPARATION METHOD AND USE THEREOF” (HONGYUN BIOTECH CO., LTD., priority 2020, published 2023).
pIC50: −log10 of the molar value.

Experiments:
Assay in all cases: Growth inhibitory activity of compounds on BaF3 cell lines stably transfected with kinase (MTS, 48 h)
Assay type in all cases: cell-based
[1] = molecular target: T1, various mutants of kinase EGFR (BaF3 cell lines stably transfected with kinase) (Homo sapiens, UniProt P00533); conditions: BaF3 cell line stably transfected with EGFR Δ19Del, read-out: Δ19Del growth inhibitory activity IC50
T1 construct: other: BaF3 cells stably transfected with EGFR Δ19Del; MTS, 48 h; other: BaF3 cell line stably transfected with EGFR Δ19Del
T1 sequence (P00533 with tags, fused parts or gaps DEL746-750): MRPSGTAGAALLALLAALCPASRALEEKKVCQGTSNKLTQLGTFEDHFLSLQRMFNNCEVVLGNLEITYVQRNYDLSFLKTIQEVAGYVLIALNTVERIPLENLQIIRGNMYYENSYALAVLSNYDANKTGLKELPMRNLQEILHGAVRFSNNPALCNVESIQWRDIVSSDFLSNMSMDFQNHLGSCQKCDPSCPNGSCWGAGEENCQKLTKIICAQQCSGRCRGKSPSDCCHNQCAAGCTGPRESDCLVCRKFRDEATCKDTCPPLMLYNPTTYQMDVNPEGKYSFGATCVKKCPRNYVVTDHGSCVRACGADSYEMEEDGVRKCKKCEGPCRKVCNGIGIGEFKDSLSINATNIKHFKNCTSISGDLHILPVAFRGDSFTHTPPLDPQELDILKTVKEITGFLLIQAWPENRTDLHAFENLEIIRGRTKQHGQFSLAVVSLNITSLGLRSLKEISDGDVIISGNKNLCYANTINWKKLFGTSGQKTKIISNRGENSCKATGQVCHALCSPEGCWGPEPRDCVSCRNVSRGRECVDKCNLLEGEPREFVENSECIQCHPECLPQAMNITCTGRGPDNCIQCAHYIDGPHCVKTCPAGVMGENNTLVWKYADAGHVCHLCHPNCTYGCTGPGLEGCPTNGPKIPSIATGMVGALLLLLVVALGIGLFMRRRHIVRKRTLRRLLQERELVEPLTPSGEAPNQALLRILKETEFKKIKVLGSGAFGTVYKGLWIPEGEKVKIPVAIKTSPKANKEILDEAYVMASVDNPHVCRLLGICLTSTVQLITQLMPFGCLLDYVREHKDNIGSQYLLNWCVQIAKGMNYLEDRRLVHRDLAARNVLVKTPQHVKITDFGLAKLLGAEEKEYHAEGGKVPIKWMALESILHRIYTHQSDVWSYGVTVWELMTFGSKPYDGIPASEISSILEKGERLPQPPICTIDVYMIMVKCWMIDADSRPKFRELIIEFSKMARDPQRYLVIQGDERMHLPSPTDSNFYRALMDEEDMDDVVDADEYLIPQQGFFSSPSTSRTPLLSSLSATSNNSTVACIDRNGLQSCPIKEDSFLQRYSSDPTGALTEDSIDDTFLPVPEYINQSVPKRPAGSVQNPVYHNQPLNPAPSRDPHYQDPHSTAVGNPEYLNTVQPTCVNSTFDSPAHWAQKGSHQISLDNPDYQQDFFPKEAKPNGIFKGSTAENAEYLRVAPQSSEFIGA
Outline: (§1)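 OD at 490 nm after 1-4 h MTS/PES incubation gave growth inhibition relative to 0.1% DMSO negative and cell-free medium blank. Compounds: 8-point 1/3 dilution from 10 µM, 48 h, 37 °C. IC50 from inhibition curves; duplicates.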

[2] = molecular target: T2, various mutants of kinase EGFR (BaF3 cell lines stably transfected with kinase) (Homo sapiens, UniProt P00533, C797S/L858R/T790M); conditions: BaF3 cell line stably transfected with EGFR L858R/T790M/C797S, read-out: L858R/T790M/ C797S growth inhibitory activity IC50
T2 construct: expressed in transfected cells; host or cells: BaF3
T2 sequence (P00533 25-1210 T790M/C797S/L858R): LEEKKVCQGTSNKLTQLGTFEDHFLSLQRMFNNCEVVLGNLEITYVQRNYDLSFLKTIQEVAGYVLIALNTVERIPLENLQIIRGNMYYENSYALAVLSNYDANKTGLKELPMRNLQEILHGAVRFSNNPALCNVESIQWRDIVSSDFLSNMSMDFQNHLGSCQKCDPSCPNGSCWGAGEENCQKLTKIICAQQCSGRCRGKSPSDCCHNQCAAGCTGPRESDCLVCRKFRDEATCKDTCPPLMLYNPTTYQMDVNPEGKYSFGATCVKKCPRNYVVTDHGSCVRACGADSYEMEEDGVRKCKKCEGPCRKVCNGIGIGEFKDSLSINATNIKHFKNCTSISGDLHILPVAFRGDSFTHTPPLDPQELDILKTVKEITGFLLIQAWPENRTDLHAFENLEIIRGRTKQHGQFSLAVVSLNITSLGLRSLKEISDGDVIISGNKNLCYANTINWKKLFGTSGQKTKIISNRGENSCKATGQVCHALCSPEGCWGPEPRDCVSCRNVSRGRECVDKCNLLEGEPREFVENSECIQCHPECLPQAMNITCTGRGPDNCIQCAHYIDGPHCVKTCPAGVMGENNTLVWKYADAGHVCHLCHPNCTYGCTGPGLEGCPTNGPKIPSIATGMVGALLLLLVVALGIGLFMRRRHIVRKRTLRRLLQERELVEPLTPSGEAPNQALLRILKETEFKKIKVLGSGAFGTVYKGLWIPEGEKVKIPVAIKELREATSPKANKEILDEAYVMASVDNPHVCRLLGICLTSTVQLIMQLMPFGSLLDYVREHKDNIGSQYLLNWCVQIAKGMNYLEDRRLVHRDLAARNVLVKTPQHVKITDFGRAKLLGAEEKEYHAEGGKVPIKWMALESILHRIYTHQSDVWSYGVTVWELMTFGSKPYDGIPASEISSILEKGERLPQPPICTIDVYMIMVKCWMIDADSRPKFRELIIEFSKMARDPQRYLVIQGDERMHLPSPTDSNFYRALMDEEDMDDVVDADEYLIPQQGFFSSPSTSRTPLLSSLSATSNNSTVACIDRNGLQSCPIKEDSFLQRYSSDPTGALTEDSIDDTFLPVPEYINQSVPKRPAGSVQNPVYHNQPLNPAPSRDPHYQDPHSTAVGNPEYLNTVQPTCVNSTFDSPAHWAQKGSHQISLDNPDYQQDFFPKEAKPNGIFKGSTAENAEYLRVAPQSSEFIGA
Outline: as §1

[3] = molecular target: T3, various mutants of kinase EGFR (BaF3 cell lines stably transfected with kinase) (Homo sapiens, UniProt P00533, L858R); conditions: BaF3 cell line stably transfected with EGFR L858R, read-out: L858R growth inhibitory activity IC50
T3 construct: expressed in transfected cells; host or cells: BaF3
T3 sequence (P00533 25-1210 L858R): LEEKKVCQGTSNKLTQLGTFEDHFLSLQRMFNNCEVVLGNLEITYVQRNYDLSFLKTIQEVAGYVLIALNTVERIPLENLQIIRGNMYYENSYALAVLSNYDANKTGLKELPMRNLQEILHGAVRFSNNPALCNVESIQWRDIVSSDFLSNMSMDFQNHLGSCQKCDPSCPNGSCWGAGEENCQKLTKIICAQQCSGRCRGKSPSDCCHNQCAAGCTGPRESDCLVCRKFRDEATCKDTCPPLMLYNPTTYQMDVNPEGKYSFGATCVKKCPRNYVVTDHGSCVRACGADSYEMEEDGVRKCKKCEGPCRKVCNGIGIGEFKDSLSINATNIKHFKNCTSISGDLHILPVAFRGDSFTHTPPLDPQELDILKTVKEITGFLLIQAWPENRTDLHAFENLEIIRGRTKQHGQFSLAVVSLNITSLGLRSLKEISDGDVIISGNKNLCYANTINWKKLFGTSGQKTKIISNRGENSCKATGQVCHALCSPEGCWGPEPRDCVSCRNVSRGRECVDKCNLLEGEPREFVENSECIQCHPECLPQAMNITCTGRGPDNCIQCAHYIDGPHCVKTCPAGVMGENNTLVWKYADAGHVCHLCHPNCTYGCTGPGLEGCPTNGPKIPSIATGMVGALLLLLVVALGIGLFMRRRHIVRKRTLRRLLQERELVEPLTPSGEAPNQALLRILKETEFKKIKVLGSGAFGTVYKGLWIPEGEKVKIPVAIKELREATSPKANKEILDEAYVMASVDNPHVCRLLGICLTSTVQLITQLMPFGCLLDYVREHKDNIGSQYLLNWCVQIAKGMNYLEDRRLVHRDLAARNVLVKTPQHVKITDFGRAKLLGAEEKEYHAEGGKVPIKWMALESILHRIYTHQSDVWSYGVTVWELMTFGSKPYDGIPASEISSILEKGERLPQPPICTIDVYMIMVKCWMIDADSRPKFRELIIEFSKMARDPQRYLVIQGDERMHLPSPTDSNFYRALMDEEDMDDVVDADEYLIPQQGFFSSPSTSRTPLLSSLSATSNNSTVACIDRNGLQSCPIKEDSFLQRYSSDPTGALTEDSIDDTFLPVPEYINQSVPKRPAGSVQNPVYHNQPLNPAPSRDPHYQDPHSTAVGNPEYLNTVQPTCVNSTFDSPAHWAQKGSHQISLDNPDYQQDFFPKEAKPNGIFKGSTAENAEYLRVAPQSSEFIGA
Outline: as §1

[4] = molecular target: T4, various mutants of kinase EGFR (BaF3 cell lines stably transfected with kinase) (Homo sapiens, UniProt P00533, L858R/T790M); conditions: BaF3 cell line stably transfected with EGFR L858R/T790M, read-out: L858R/ T790M growth inhibitory activity IC50
T4 construct: expressed in transfected cells; host or cells: BaF3
Outline: as §1

[5] = molecular target: T5, various mutants of kinase EGFR (BaF3 cell lines stably transfected with kinase) (Homo sapiens, UniProt P00533, T790M/C797S, form not given); conditions: BaF3 cell line stably transfected with EGFR Δ19Del/T790M/C797S, read-out: Δ19Del/T790M/ C797S growth inhibitory activity IC50
T5 construct: other: BaF3 cells stably transfected with EGFR Δ19Del/T790M/C797S; MTS, 48; other: BaF3 cell line stably transfected with EGFR Δ19Del/T790M/C7
T5 sequence (P00533 with tags, fused parts or gaps DEL746-750/T790M/C797S, form open): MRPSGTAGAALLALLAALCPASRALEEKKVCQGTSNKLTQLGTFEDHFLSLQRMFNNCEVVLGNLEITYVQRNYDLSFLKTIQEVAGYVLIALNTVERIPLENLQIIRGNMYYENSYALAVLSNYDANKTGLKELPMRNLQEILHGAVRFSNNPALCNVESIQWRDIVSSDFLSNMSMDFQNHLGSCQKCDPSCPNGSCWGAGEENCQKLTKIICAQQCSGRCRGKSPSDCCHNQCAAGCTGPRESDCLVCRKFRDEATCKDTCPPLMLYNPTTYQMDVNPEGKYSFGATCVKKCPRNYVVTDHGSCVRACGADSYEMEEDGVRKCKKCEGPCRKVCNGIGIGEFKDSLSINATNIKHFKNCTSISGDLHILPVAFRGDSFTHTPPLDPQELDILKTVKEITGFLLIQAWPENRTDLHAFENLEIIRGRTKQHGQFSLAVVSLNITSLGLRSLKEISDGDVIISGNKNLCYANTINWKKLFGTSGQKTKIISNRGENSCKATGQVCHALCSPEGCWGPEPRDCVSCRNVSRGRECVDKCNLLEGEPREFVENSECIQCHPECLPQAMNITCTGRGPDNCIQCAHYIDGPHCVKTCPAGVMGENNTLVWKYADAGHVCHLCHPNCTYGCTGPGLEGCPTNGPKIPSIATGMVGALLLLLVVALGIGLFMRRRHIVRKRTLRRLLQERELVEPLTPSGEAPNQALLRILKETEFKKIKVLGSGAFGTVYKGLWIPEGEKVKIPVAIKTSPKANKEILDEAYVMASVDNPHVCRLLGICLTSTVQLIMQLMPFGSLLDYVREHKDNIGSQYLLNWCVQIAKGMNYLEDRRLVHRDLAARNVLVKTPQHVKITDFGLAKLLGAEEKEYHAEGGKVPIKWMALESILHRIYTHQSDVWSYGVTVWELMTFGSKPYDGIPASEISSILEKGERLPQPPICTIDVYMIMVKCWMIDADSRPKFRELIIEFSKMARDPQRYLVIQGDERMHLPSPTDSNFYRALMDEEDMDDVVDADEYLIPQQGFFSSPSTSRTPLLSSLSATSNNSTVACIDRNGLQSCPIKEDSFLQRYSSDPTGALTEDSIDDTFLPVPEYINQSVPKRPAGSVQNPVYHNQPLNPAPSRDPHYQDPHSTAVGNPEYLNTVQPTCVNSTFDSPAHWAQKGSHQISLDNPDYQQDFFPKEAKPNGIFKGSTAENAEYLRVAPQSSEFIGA
Outline: as §1

[6] = molecular target: T6, various mutants of kinase EGFR (BaF3 cell lines stably transfected with kinase) (Homo sapiens, UniProt P00533, T790M, form not given); conditions: BaF3 cell line stably transfected with EGFR Δ19Del/T790M, read-out: Δ19Del/ T790M growth inhibitory activity IC50
T6 construct: other: BaF3 cells stably transfected with EGFR Δ19Del/T790M; MTS, 48 h; other: BaF3 cell line stably transfected with EGFR Δ19Del/T790M; MTS, 48
Outline: as §1

Structure (SMILES) | pIC50 [1] | pIC50 [2] | pIC50 [3] | pIC50 [4] | pIC50 [5] | pIC50 [6]
COc1ccc(N2CCC(O)CC2)cc1Nc1ncc(Br)c(Nc2ccc3nccnc3c2N(C)S(=O)(=O)C(F)(F)F)n1 [Compound I-371] | 5.60 to 6.30 | ≥ 7.30 | 6.30 to 7.30 | 6.30 to 7.30 | ≥ 7.30 | 6.30 to 7.30
COc1ccc(N2CCC(O)CC2)cc1Nc1ncc(F)c(Nc2ccc3nccnc3c2N(C)S(=O)(=O)C2CC2)n1 [Compound I-373] | 5.60 to 6.30 | 5.60 to 6.30 | 6.30 to 7.30 | 5.60 to 6.30 | 6.30 to 7.30 | 5.60 to 6.30
COc1ccc(N2CCC(O)CC2)cc1Nc1ncc(Br)c(Nc2ccc3nccnc3c2N(C)S(=O)(=O)C2CC2)n1 [Compound I-375] | ≥ 7.30 | ≥ 7.30 | ≥ 7.30 | ≥ 7.30 | ≥ 7.30 | ≥ 7.30
COc1ccc(N2CCC(O)CC2)cc1Nc1ncc(Br)c(Nc2ccc3nccnc3c2N(C2CC2)S(C)(=O)=O)n1 [Compound I-380] | ≥ 7.30 | ≥ 7.30 | ≥ 7.30 | ≥ 7.30 | ≥ 7.30 | ≥ 7.30
CN(c1c(Nc2nc(Nc3cccc(N4CCC(N5CCCC5)CC4)c3)ncc2Br)ccc2nccnc12)S(C)(=O)=O [Compound I-381] | 6.30 to 7.30 | ≥ 7.30 | 6.30 to 7.30 | ≥ 7.30 | 6.30 to 7.30 | ≥ 7.30
COc1ccc(N2CCC(N3CCCC3)CC2)cc1Nc1ncc(Br)c(Nc2ccc3nccnc3c2N(C)S(C)(=O)=O)n1 [Compound I-382] | 6.30 to 7.30 | ≥ 7.30 | 6.30 to 7.30 | ≥ 7.30 | 6.30 to 7.30 | 6.30 to 7.30
CCn1ccc(Nc2ncc(Br)c(Nc3ccc4nccnc4c3N(C)S(C)(=O)=O)n2)n1 [Compound I-383] | 6.30 to 7.30 | ≥ 7.30 | 6.30 to 7.30 | 6.30 to 7.30 | 6.30 to 7.30 | 6.30 to 7.30
CC(C)n1ccc(Nc2ncc(Br)c(Nc3ccc4nccnc4c3N(C)S(C)(=O)=O)n2)n1 [Compound I-384] | 5.60 to 6.30 | 6.30 to 7.30 | 5.60 to 6.30 | 6.30 to 7.30 | 6.30 to 7.30 | 6.30 to 7.30
Cc1cc(Nc2ncc(Br)c(Nc3ccc4nccnc4c3N(C)S(C)(=O)=O)n2)nn1C [Compound I-385] | 5.60 to 6.30 | ≥ 7.30 | 5.60 to 6.30 | 5.60 to 6.30 | 6.30 to 7.30 | 5.60 to 6.30
CCn1cc(Nc2ncc(Br)c(Nc3ccc4nccnc4c3N(C)S(C)(=O)=O)n2)cn1 [Compound I-386] | 6.30 to 7.30 | 6.30 to 7.30 | 6.30 to 7.30 | 6.30 to 7.30 | ≥ 7.30 | 6.30 to 7.30
CCn1cc(Nc2ncc(Br)c(Nc3ccc4nccnc4c3N(C)S(C)(=O)=O)n2)c(C)n1 [Compound I-387] | 5.60 to 6.30 | 6.30 to 7.30 | 5.60 to 6.30 | 6.30 to 7.30 | 6.30 to 7.30 | 5.60 to 6.30
CC(C)n1cc(Nc2ncc(Br)c(Nc3ccc4nccnc4c3N(C)S(C)(=O)=O)n2)cn1 [Compound I-388] | 6.30 to 7.30 | ≥ 7.30 | 6.30 to 7.30 | ≥ 7.30 | ≥ 7.30 | 6.30 to 7.30
CCc1cc(Nc2ncc(Br)c(Nc3ccc4nccnc4c3N(C)S(C)(=O)=O)n2)c(OC)cc1F [Compound I-389] | 5.60 to 6.30 | 6.30 to 7.30 | 5.60 to 6.30 | 5.60 to 6.30 | 5.60 to 6.30 | 5.60 to 6.30
CCc1cc(Nc2ncc(Br)c(Nc3ccc4nccnc4c3N(C)S(C)(=O)=O)n2)c(OC)cc1NCCO [Compound I-390] | 5.60 to 6.30 | ≥ 7.30 | 6.30 to 7.30 | 6.30 to 7.30 | 6.30 to 7.30 | 6.30 to 7.30
CCc1cc(Nc2ncc(Br)c(Nc3ccc4nccnc4c3N(C)S(C)(=O)=O)n2)c(OC)cc1NCCN(C)C [Compound I-391] | 6.30 to 7.30 | ≥ 7.30 | 6.30 to 7.30 | 6.30 to 7.30 | ≥ 7.30 | 6.30 to 7.30
CCc1cc(Nc2ncc(Br)c(Nc3ccc4nccnc4c3N(C)S(C)(=O)=O)n2)c(OC)cc1N(C)CCN(C)C [Compound I-392] | 6.30 to 7.30 | ≥ 7.30 | 6.30 to 7.30 | 6.30 to 7.30 | ≥ 7.30 | 6.30 to 7.30
CCc1cc(Nc2ncc(Br)c(Nc3ccc4nccnc4c3N(C)S(C)(=O)=O)n2)c(OC)cc1N1CCC(N2CCN(C)CC2)CC1 [Compound I-396] | 6.30 to 7.30 | ≥ 7.30 | 6.30 to 7.30 | 6.30 to 7.30 | ≥ 7.30 | 6.30 to 7.30
CCc1cc(Nc2ncc(Br)c(Nc3ccc4nccnc4c3N(C)S(C)(=O)=O)n2)c(OC)cc1N1CCN(C2CN(C)C2)CC1 [Compound I-398] | ≥ 7.30 | ≥ 7.30 | ≥ 7.30 | ≥ 7.30 | ≥ 7.30 | ≥ 7.30
CCc1cc(Nc2ncc(Br)c(Nc3ccc4nccnc4c3N(C)S(C)(=O)=O)n2)c(OC)cc1N1CCC2(CC1)CC(N(C)C)C2 [Compound I-399] | 6.30 to 7.30 | ≥ 7.30 | 6.30 to 7.30 | 6.30 to 7.30 | ≥ 7.30 | 6.30 to 7.30
COc1cc(N2CCC(N3CCN(C)CC3)CC2)ccc1Nc1ncc(Br)c(Nc2ccc3nccnc3c2NS(C)(=O)=O)n1 [Compound I-401] | 6.30 to 7.30 | 6.30 to 7.30 | 6.30 to 7.30 | ≥ 7.30 | 6.30 to 7.30 | 6.30 to 7.30

Results, then the compound that gave them:

pIC50 [1] | pIC50 [2] | pIC50 [3] | pIC50 [4] | pIC50 [5] | pIC50 [6] | Structure (SMILES)
5.60 to 6.30 | 6.30 to 7.30 | 5.60 to 6.30 | 5.60 to 6.30 | 6.30 to 7.30 | 5.60 to 6.30 | COc1ccc(N2CCC(O)CC2)cc1Nc1ncc(F)c(Nc2ccc3nccnc3c2N(C)S(C)(=O)=O)n1 [Compound I-367]
6.30 to 7.30 | ≥ 7.30 | 6.30 to 7.30 | ≥ 7.30 | ≥ 7.30 | 6.30 to 7.30 | COc1ccc(N2CCC(O)CC2)cc1Nc1ncc(Cl)c(Nc2ccc3nccnc3c2N(C)S(C)(=O)=O)n1 [Compound I-368]
6.30 to 7.30 | ≥ 7.30 | 6.30 to 7.30 | ≥ 7.30 | ≥ 7.30 | ≥ 7.30 | COc1ccc(N2CCC(O)CC2)cc1Nc1ncc(C(F)(F)F)c(Nc2ccc3nccnc3c2N(C)S(C)(=O)=O)n1 [Compound I-369]
5.60 to 6.30 | ≥ 7.30 | 6.30 to 7.30 | 6.30 to 7.30 | ≥ 7.30 | 5.60 to 6.30 | COc1ccc(N2CCC(O)CC2)cc1Nc1ncc(Cl)c(Nc2ccc3nccnc3c2N(C)S(=O)(=O)C(F)(F)F)n1 [Compound I-370]
6.30 to 7.30 | ≥ 7.30 | ≥ 7.30 | ≥ 7.30 | ≥ 7.30 | 6.30 to 7.30 | CCS(=O)(=O)N(C)c1c(Nc2nc(Nc3cc(N4CCC(O)CC4)ccc3OC)ncc2Cl)ccc2nccnc12 [Compound I-372]
6.30 to 7.30 | ≥ 7.30 | 6.30 to 7.30 | 6.30 to 7.30 | ≥ 7.30 | 6.30 to 7.30 | COc1ccc(N2CCC(O)CC2)cc1Nc1ncc(Cl)c(Nc2ccc3nccnc3c2N(C)S(=O)(=O)C2CC2)n1 [Compound I-374]
6.30 to 7.30 | ≥ 7.30 | 6.30 to 7.30 | ≥ 7.30 | ≥ 7.30 | 6.30 to 7.30 | COc1ccc(N2CCC(O)CC2)cc1Nc1ncc(Br)c(Nc2ccc3nccnc3c2N(C)S(=O)(=O)C(C)C)n1 [Compound I-376]
≥ 7.30 | ≥ 7.30 | ≥ 7.30 | ≥ 7.30 | ≥ 7.30 | ≥ 7.30 | CCN(c1c(Nc2nc(Nc3cc(N4CCC(O)CC4)ccc3OC)ncc2Cl)ccc2nccnc12)S(C)(=O)=O [Compound I-377]
6.30 to 7.30 | ≥ 7.30 | 6.30 to 7.30 | ≥ 7.30 | ≥ 7.30 | ≥ 7.30 | CCN(c1c(Nc2nc(Nc3cc(N4CCC(O)CC4)ccc3OC)ncc2Br)ccc2nccnc12)S(C)(=O)=O [Compound I-378]
≥ 7.30 | ≥ 7.30 | ≥ 7.30 | ≥ 7.30 | ≥ 7.30 | ≥ 7.30 | COc1ccc(N2CCC(O)CC2)cc1Nc1ncc(Cl)c(Nc2ccc3nccnc3c2N(C2CC2)S(C)(=O)=O)n1 [Compound I-379]
